Reference: the CheMixHub viscosity set
± gives the uncertainty stated by the source.

Experiment: xn = mol fraction of the nth substance listed

ClCc1ccccc1 + c1ccccc1
viscosity (298.15 K, 101 kPa, x2 = 0.1988): 0.9856 ± 0.3 mPa·s | viscosity (298.15 K, 101 kPa, x2 = 0.3583): 0.8952 ± 0.27 mPa·s | viscosity (298.15 K, 101 kPa, x2 = 0.489): 0.8251 ± 0.25 mPa·s | viscosity (298.15 K, 101 kPa, x2 = 0.5982): 0.7742 ± 0.23 mPa·s | viscosity (298.15 K, 101 kPa, x2 = 0.6907): 0.7152 ± 0.21 mPa·s | viscosity (298.15 K, 101 kPa, x2 = 0.7701): 0.6823 ± 0.2 mPa·s | viscosity (298.15 K, 101 kPa, x2 = 0.839): 0.6598 ± 0.2 mPa·s | viscosity (298.15 K, 101 kPa, x2 = 0.8993): 0.6485 ± 0.19 mPa·s | viscosity (298.15 K, 101 kPa, x2 = 0.9526): 0.6042 ± 0.18 mPa·s | viscosity (303.15 K, 101 kPa, x2 = 0.1988): 0.9782 ± 0.29 mPa·s | viscosity (303.15 K, 101 kPa, x2 = 0.3583): 0.8724 ± 0.26 mPa·s | viscosity (303.15 K, 101 kPa, x2 = 0.489): 0.8024 ± 0.24 mPa·s | viscosity (303.15 K, 101 kPa, x2 = 0.5982): 0.7153 ± 0.21 mPa·s | viscosity (303.15 K, 101 kPa, x2 = 0.6907): 0.6942 ± 0.21 mPa·s | viscosity (303.15 K, 101 kPa, x2 = 0.7701): 0.6324 ± 0.19 mPa·s | viscosity (303.15 K, 101 kPa, x2 = 0.839): 0.6248 ± 0.19 mPa·s | viscosity (303.15 K, 101 kPa, x2 = 0.8993): 0.5923 ± 0.18 mPa·s | viscosity (303.15 K, 101 kPa, x2 = 0.9526): 0.5634 ± 0.17 mPa·s | viscosity (308.15 K, 101 kPa, x2 = 0.1988): 0.9265 ± 0.28 mPa·s | viscosity (308.15 K, 101 kPa, x2 = 0.3583): 0.8258 ± 0.25 mPa·s | viscosity (308.15 K, 101 kPa, x2 = 0.489): 0.7865 ± 0.24 mPa·s | viscosity (308.15 K, 101 kPa, x2 = 0.5982): 0.7026 ± 0.21 mPa·s | viscosity (308.15 K, 101 kPa, x2 = 0.6907): 0.6294 ± 0.19 mPa·s | viscosity (308.15 K, 101 kPa, x2 = 0.7701): 0.6058 ± 0.18 mPa·s | viscosity (308.15 K, 101 kPa, x2 = 0.839): 0.5861 ± 0.18 mPa·s | viscosity (308.15 K, 101 kPa, x2 = 0.8993): 0.5592 ± 0.17 mPa·s | viscosity (308.15 K, 101 kPa, x2 = 0.9526): 0.5389 ± 0.16 mPa·s | viscosity (313.15 K, 101 kPa, x2 = 0.1988): 0.9357 ± 0.28 mPa·s | viscosity (313.15 K, 101 kPa, x2 = 0.3583): 0.8562 ± 0.26 mPa·s | viscosity (313.15 K, 101 kPa, x2 = 0.489): 0.7548 ± 0.23 mPa·s | viscosity (313.15 K, 101 kPa, x2 = 0.5982): 0.6994 ± 0.21 mPa·s | viscosity (313.15 K, 101 kPa, x2 = 0.6907): 0.6241 ± 0.19 mPa·s | viscosity (313.15 K, 101 kPa, x2 = 0.7701): 0.5826 ± 0.17 mPa·s | viscosity (313.15 K, 101 kPa, x2 = 0.839): 0.5742 ± 0.17 mPa·s | viscosity (313.15 K, 101 kPa, x2 = 0.8993): 0.5486 ± 0.16 mPa·s | viscosity (313.15 K, 101 kPa, x2 = 0.9526): 0.5095 ± 0.15 mPa·s

Nc1ccccc1 + c1ccccc1
viscosity (298.15 K, 101 kPa, x1 = 0.1039): 0.71 ± 0.037 mPa·s | viscosity (298.15 K, 101 kPa, x1 = 0.2282): 0.83 ± 0.042 mPa·s | viscosity (298.15 K, 101 kPa, x1 = 0.3729): 1.1 ± 0.054 mPa·s | viscosity (298.15 K, 101 kPa, x1 = 0.4341): 1.211 ± 0.059 mPa·s | viscosity (298.15 K, 101 kPa, x1 = 0.5562): 1.483 ± 0.071 mPa·s | viscosity (298.15 K, 101 kPa, x1 = 0.6562): 1.803 ± 0.084 mPa·s | viscosity (298.15 K, 101 kPa, x1 = 0.7656): 2.217 ± 0.1 mPa·s | viscosity (298.15 K, 101 kPa, x1 = 0.8661): 2.767 ± 0.13 mPa·s | viscosity (298.15 K, 101 kPa, x1 = 0.9088): 3.029 ± 0.14 mPa·s | viscosity (298.15 K, 101 kPa, x2 = 0.01): 3.64 ± 0.05 mPa·s | viscosity (298.15 K, 101 kPa, x2 = 0.026): 3.555 ± 0.048 mPa·s | viscosity (298.15 K, 101 kPa, x2 = 0.12): 2.895 ± 0.039 mPa·s | viscosity (298.15 K, 101 kPa, x2 = 0.205): 2.461 ± 0.033 mPa·s | viscosity (298.15 K, 101 kPa, x2 = 0.304): 2.022 ± 0.027 mPa·s | viscosity (298.15 K, 101 kPa, x2 = 0.39): 1.67 ± 0.02 mPa·s | viscosity (298.15 K, 101 kPa, x2 = 0.468): 1.448 ± 0.019 mPa·s | viscosity (298.15 K, 101 kPa, x2 = 0.52): 1.307 ± 0.017 mPa·s | viscosity (298.15 K, 101 kPa, x2 = 0.626): 1.1 ± 0.014 mPa·s | viscosity (298.15 K, 101 kPa, x2 = 0.662): 1.056 ± 0.014 mPa·s | viscosity (298.15 K, 101 kPa, x2 = 0.794): 0.861 ± 0.011 mPa·s | viscosity (298.15 K, 101 kPa, x2 = 0.896): 0.714 ± 0.009 mPa·s | viscosity (298.15 K, 101.33 kPa, x1 = 0.2): 0.78 ± 0.016 mPa·s | viscosity (298.15 K, 101.33 kPa, x1 = 0.5): 1.277 ± 0.026 mPa·s | viscosity (298.15 K, 101.33 kPa, x2 = 0.25): 2.458 ± 0.037 mPa·s | viscosity (298.15 K, 101.33 kPa, x2 = 0.4): 1.764 ± 0.026 mPa·s | viscosity (298.15 K, 101.33 kPa, x2 = 0.5): 1.427 ± 0.021 mPa·s | viscosity (303.15 K, 101 kPa, x1 = 0.1039): 0.657 ± 0.035 mPa·s | viscosity (303.15 K, 101 kPa, x1 = 0.2282): 0.781 ± 0.04 mPa·s | viscosity (303.15 K, 101 kPa, x1 = 0.3729): 0.965 ± 0.048 mPa·s | viscosity (303.15 K, 101 kPa, x1 = 0.4341): 1.093 ± 0.054 mPa·s | viscosity (303.15 K, 101 kPa, x1 = 0.5562): 1.371 ± 0.066 mPa·s | viscosity (303.15 K, 101 kPa, x1 = 0.6562): 1.648 ± 0.078 mPa·s | viscosity (303.15 K, 101 kPa, x1 = 0.7656): 1.991 ± 0.093 mPa·s | viscosity (303.15 K, 101 kPa, x1 = 0.8661): 2.495 ± 0.11 mPa·s | viscosity (303.15 K, 101 kPa, x1 = 0.9088): 2.745 ± 0.12 mPa·s | viscosity (308.15 K, 101 kPa, x1 = 0.1019): 0.5981 ± 0.024 mPa·s | viscosity (308.15 K, 101 kPa, x1 = 0.1039): 0.589 ± 0.032 mPa·s | viscosity (308.15 K, 101 kPa, x1 = 0.1492): 0.6532 ± 0.027 mPa·s | viscosity (308.15 K, 101 kPa, x1 = 0.2282): 0.736 ± 0.038 mPa·s | viscosity (308.15 K, 101 kPa, x1 = 0.2326): 0.728 ± 0.03 mPa·s | viscosity (308.15 K, 101 kPa, x1 = 0.267): 0.7545 ± 0.031 mPa·s | viscosity (308.15 K, 101 kPa, x1 = 0.3462): 0.8563 ± 0.035 mPa·s | viscosity (308.15 K, 101 kPa, x1 = 0.3729): 0.91 ± 0.046 mPa·s | viscosity (308.15 K, 101 kPa, x1 = 0.4341): 1.012 ± 0.05 mPa·s | viscosity (308.15 K, 101 kPa, x1 = 0.4911): 1.115 ± 0.045 mPa·s | viscosity (308.15 K, 101 kPa, x1 = 0.5562): 1.224 ± 0.059 mPa·s | viscosity (308.15 K, 101 kPa, x1 = 0.6312): 1.492 ± 0.061 mPa·s | viscosity (308.15 K, 101 kPa, x1 = 0.6562): 1.476 ± 0.07 mPa·s | viscosity (308.15 K, 101 kPa, x1 = 0.68): 1.59 ± 0.065 mPa·s | viscosity (308.15 K, 101 kPa, x1 = 0.7615): 1.835 ± 0.075 mPa·s | viscosity (308.15 K, 101 kPa, x1 = 0.7656): 1.79 ± 0.084 mPa·s | viscosity (308.15 K, 101 kPa, x1 = 0.8499): 2.128 ± 0.087 mPa·s | viscosity (308.15 K, 101 kPa, x1 = 0.8661): 2.179 ± 0.1 mPa·s | viscosity (308.15 K, 101 kPa, x1 = 0.9088): 2.443 ± 0.11 mPa·s | viscosity (313.15 K, 101 kPa, x1 = 0.1039): 0.562 ± 0.031 mPa·s | viscosity (313.15 K, 101 kPa, x1 = 0.2282): 0.689 ± 0.036 mPa·s | viscosity (313.15 K, 101 kPa, x1 = 0.3729): 0.842 ± 0.043 mPa·s | viscosity (313.15 K, 101 kPa, x1 = 0.4341): 0.928 ± 0.047 mPa·s | viscosity (313.15 K, 101 kPa, x1 = 0.5562): 1.124 ± 0.055 mPa·s | viscosity (313.15 K, 101 kPa, x1 = 0.6562): 1.337 ± 0.064 mPa·s | viscosity (313.15 K, 101 kPa, x1 = 0.7656): 1.587 ± 0.075 mPa·s | viscosity (313.15 K, 101 kPa, x1 = 0.8661): 1.93 ± 0.09 mPa·s | viscosity (313.15 K, 101 kPa, x1 = 0.9088): 2.103 ± 0.098 mPa·s | viscosity (323.15 K, 101.33 kPa, x1 = 0.2): 0.541 ± 0.011 mPa·s | viscosity (323.15 K, 101.33 kPa, x1 = 0.5): 0.792 ± 0.016 mPa·s
